{"source": "patent US8835134B2", "about": "“Cycloastragenol monoglucoside, preparation, pharmaceutical composition and application thereof” (Tianjin Institute of Pharmaceutical Research, priority 2007, dated 2014)", "tested_on": "anesthetized open-chest dogs", "experiment": "Hemodynamics of anesthetized open-chest dogs, intravenous infusion", "format": "in vivo, mongrel dogs", "settings": "0.15 mg/kg iv", "procedure": "The animals were anesthetized by intravenous injection of 30 mg/kg sodium pentobarbital, tracheally intubated, and mechanically ventilated with positive air pressure. Left thoracotomy was performed through the fourth intercostal space and the heart was suspended in a pericardial cradle, the aortic root was isolated and a probe of blood flow meter (12 or 14 mm in diameter) was fixed to measure the aortic blood flow as a representation of cardiac output (CO), the circumflex branch of left coronary artery was isolated and a probe of blood flow meter (2 or 2.5 mm in diameter) was fixed to measure the coronary blood flow (CBF). A polyethylene catheter filled with heparin physiological saline was inserted through cardiac apex into the left ventricle to measure the left ventricular pressure (LVP) and left ventricular end-diastolic pressure (LVEDP), Peak positive and peak negative first derivatives of the LVP (+ LVdp/dt and − LVdp/dt) were calculated with the Acknowledge software. The systolic blood pressure (SBP), diastolic blood pressure (DBP) and mean arterial pressure (MAP) were measured by polyethylene catheter via the femoral artery, ECG □ was measured by a AC-601G ECG amplifier. The above-mentioned analog signal was input into a data acquisition workstation (MP100, BIOPAC Systems, USA) to a computer running Acknowledge (version 3.7.1).\nAfter surgery, various indexes before administration were recorded until the indexes were stable, and then intravenous infusion administration was conducted. Thirty dogs were divided into five groups (six dogs in each group), the experiment groups were given 0.15, 0.3, 0.6 mg/kg of ASP-[…] respectively, the normal control group was given 1 ml/kg of solvent, and the positive control group was given 0.3 mg/kg of astragaloside IV. The delivery volumes were 15 ml for each dog was and the delivery velocity was 1 ml/min. The indexes were recorded at 5, 10, 15, 20, 30, 45, 60, 90 and 120 mins after drug administration. At the end of experiment, the hearts were excised and weighted. The myocardial blood flow for per hectogram (CF), coronary resistance (CR), cardiac index (CI), left ventricular work (LVW) and total peripheral resistance (TPR) were calculated according to the following formulae: CF=CBF×[…]/heart weight CR=MAP/CF CI=CO/0.11×(body weight)^2/3 LVW=CO×(MAP−5)×1.052×0.0136 TPR=MAP×79.92/CO\nData are expressed as mean±SD ( x±s), the paired t-test was used to compare the significance between before and after administration, the unpaired t-test was adopted for comparison between groups."}
{"smiles": "CC(C)(O)[C@@H]1CC[C@](C)([C@H]2[C@@H](O)C[C@@]3(C)C4C[C@H](OC5OC(CO)C(O)C(O)C5O)C5C(C)(C)[C@@H](O)CC[C@@]56C[C@@]46CC[C@]23C)O1", "note": "(stereo partly drawn) [CMG, Cycloastragenol-6-O-β-D-glucoside]", "values": [{"measurement": "LVW", "setting": "20 min after administration", "value": "1.04 ± 0.23", "unit": "kg · m"}, {"measurement": "LVW change vs before administration", "setting": "20 min after administration", "value": "(−0.08 ± 0.21) kg · m"}, {"measurement": "TPR", "setting": "20 min after administration", "value": "4882 ± 1971", "unit": "dyn · s/cm^5"}, {"measurement": "TPR change vs before administration", "setting": "20 min after administration", "value": "(−268 ± 672) dyn · s/cm^5"}, {"measurement": "dp/dt", "setting": "20 min after administration", "value": "1144 ± 452", "unit": "mmHg/s"}, {"measurement": "dp/dt change vs before administration", "setting": "20 min after administration", "value": "(−6 ± 113) mmHg/s"}, {"measurement": "−dp/dt", "setting": "20 min after administration", "value": "−830 ± 277", "unit": "mmHg/s"}, {"measurement": "−dp/dt change vs before administration", "setting": "20 min after administration", "value": "(58 ± 77) mmHg/s"}, {"measurement": "CF", "setting": "30 min after administration", "value": "52.5 ± 16.9", "unit": "ml/min/100 g"}, {"measurement": "CF change vs before administration", "setting": "30 min after administration", "value": "(−5.2 ± 7.9) ml/min/100 g"}, {"measurement": "CI", "setting": "30 min after administration", "value": "1.98 ± 0.44", "unit": "L/min/m^2"}, {"measurement": "CI change vs before administration", "setting": "30 min after administration", "value": "(−0.10 ± 0.27) L/min/m^2"}, {"measurement": "CO", "setting": "30 min after administration", "value": "1.14 ± 0.24", "unit": "L/min"}, {"measurement": "CO change vs before administration", "setting": "30 min after administration", "value": "(−0.07 ± 0.16) L/min"}, {"measurement": "CR", "setting": "30 min after administration", "value": "1.38 ± 0.38", "unit": "mmHg/ml/min/100 g"}, {"measurement": "CR change vs before administration", "setting": "30 min after administration", "value": "(0.02 ± 0.13) mmHg/ml/min/100 g"}, {"measurement": "LVEDP", "setting": "30 min after administration", "value": "1.2 ± 2.4", "unit": "mmHg"}, {"measurement": "LVEDP change vs before administration", "setting": "30 min after administration", "value": "(−0.58 ± 0.46) mmHg"}, {"measurement": "LVP", "setting": "30 min after administration", "value": "100 ± 21", "unit": "mmHg"}, {"measurement": "LVP change vs before administration", "setting": "30 min after administration", "value": "(−5.0 ± 7.3) mmHg"}, {"measurement": "LVW", "setting": "30 min after administration", "value": "1.01 ± 0.26", "unit": "kg · m"}, {"measurement": "LVW change vs before administration", "setting": "30 min after administration", "value": "(−0.11 ± 0.27) kg · m"}, {"measurement": "TPR", "setting": "30 min after administration", "value": "5045 ± 2043", "unit": "dyn · s/cm^5"}, {"measurement": "TPR change vs before administration", "setting": "30 min after administration", "value": "(−105 ± 498) dyn · s/cm^5"}, {"measurement": "dp/dt", "setting": "30 min after administration", "value": "1170 ± 425", "unit": "mmHg/s"}, {"measurement": "dp/dt change vs before administration", "setting": "30 min after administration", "value": "(20 ± 157) mmHg/s"}, {"measurement": "−dp/dt", "setting": "30 min after administration", "value": "−863 ± 258", "unit": "mmHg/s"}, {"measurement": "−dp/dt change vs before administration", "setting": "30 min after administration", "value": "(25 ± 79) mmHg/s"}, {"measurement": "CF", "setting": "45 min after administration", "value": "51.6 ± 17.1", "unit": "ml/min/100 g"}, {"measurement": "CF change vs before administration", "setting": "45 min after administration", "value": "(−6.1 ± 8.1) ml/min/100 g"}, {"measurement": "CI", "setting": "45 min after administration", "value": "2.02 ± 0.45", "unit": "L/min/m^2"}, {"measurement": "CI change vs before administration", "setting": "45 min after administration", "value": "(−0.06 ± 0.43) L/min/m^2"}, {"measurement": "CO", "setting": "45 min after administration", "value": "1.16 ± 0.22", "unit": "L/min"}, {"measurement": "CO change vs before administration", "setting": "45 min after administration", "value": "(−0.04 ± 0.25) L/min"}, {"measurement": "CR", "setting": "45 min after administration", "value": "1.42 ± 0.39", "unit": "mmHg/ml/min/100 g"}, {"measurement": "CR change vs before administration", "setting": "45 min after administration", "value": "(0.07 ± 0.20) mmHg/ml/min/100 g"}, {"measurement": "LVEDP", "setting": "45 min after administration", "value": "1.3 ± 2.2", "unit": "mmHg"}, {"measurement": "LVEDP change vs before administration", "setting": "45 min after administration", "value": "(−0.5 ± 0.44) mmHg"}, {"measurement": "LVP", "setting": "45 min after administration", "value": "101 ± 19", "unit": "mmHg"}, {"measurement": "LVP change vs before administration", "setting": "45 min after administration", "value": "(−3.6 ± 4.6) mmHg"}, {"measurement": "LVW", "setting": "45 min after administration", "value": "1.06 ± 0.31", "unit": "kg · m"}, {"measurement": "LVW change vs before administration", "setting": "45 min after administration", "value": "(−0.06 ± 0.32) kg · m"}, {"measurement": "TPR", "setting": "45 min after administration", "value": "4951 ± 1731", "unit": "dyn · s/cm^5"}, {"measurement": "TPR change vs before administration", "setting": "45 min after administration", "value": "(−199 ± 925) dyn · s/cm^5"}, {"measurement": "dp/dt", "setting": "45 min after administration", "value": "1164 ± 356", "unit": "mmHg/s"}, {"measurement": "dp/dt change vs before administration", "setting": "45 min after administration", "value": "(14 ± 86) mmHg/s"}, {"measurement": "−dp/dt", "setting": "45 min after administration", "value": "−854 ± 259", "unit": "mmHg/s"}, {"measurement": "−dp/dt change vs before administration", "setting": "45 min after administration", "value": "(34 ± 80) mmHg/s"}, {"measurement": "CF", "setting": "60 min after administration", "value": "51.8 ± 15.0", "unit": "ml/min/100 g"}, {"measurement": "CF change vs before administration", "setting": "60 min after administration", "value": "(−5.9 ± 9.9) ml/min/100 g"}, {"measurement": "CI", "setting": "60 min after administration", "value": "1.92 ± 0.42", "unit": "L/min/m^2"}, {"measurement": "CI change vs before administration", "setting": "60 min after administration", "value": "(−0.16 ± 0.37) L/min/m^2"}, {"measurement": "CO", "setting": "60 min after administration", "value": "1.11 ± 0.21", "unit": "L/min"}, {"measurement": "CO change vs before administration", "setting": "60 min after administration", "value": "(−0.10 ± 0.23) L/min"}, {"measurement": "CR", "setting": "60 min after administration", "value": "1.38 ± 0.36", "unit": "mmHg/ml/min/100 g"}, {"measurement": "CR change vs before administration", "setting": "60 min after administration", "value": "(0.03 ± 0.16) mmHg/ml/min/100 g"}, {"measurement": "LVEDP", "setting": "60 min after administration", "value": "1.3 ± 2.1", "unit": "mmHg"}, {"measurement": "LVEDP change vs before administration", "setting": "60 min after administration", "value": "(−0.46 ± 0.41) mmHg"}, {"measurement": "LVP", "setting": "60 min after administration", "value": "101 ± 19", "unit": "mmHg"}, {"measurement": "LVP change vs before administration", "setting": "60 min after administration", "value": "(−4.1 ± 4.9) mmHg"}, {"measurement": "LVW", "setting": "60 min after administration", "value": "1.00 ± 0.34", "unit": "kg · m"}, {"measurement": "LVW change vs before administration", "setting": "60 min after administration", "value": "(−0.12 ± 0.33) kg · m"}, {"measurement": "TPR", "setting": "60 min after administration", "value": "5112 ± 1599", "unit": "dyn · s/cm^5"}, {"measurement": "TPR change vs before administration", "setting": "60 min after administration", "value": "(−38 ± 811) dyn · s/cm^5"}, {"measurement": "dp/dt", "setting": "60 min after administration", "value": "1126 ± 375", "unit": "mmHg/s"}, {"measurement": "dp/dt change vs before administration", "setting": "60 min after administration", "value": "(−24 ± 57) mmHg/s"}, {"measurement": "−dp/dt", "setting": "60 min after administration", "value": "−841 ± 249", "unit": "mmHg/s"}, {"measurement": "−dp/dt change vs before administration", "setting": "60 min after administration", "value": "(47 ± 92) mmHg/s"}, {"measurement": "CF", "setting": "90 min after administration", "value": "53.7 ± 14.3", "unit": "ml/min/100 g"}, {"measurement": "CF change vs before administration", "setting": "90 min after administration", "value": "(−4.0 ± 10.4) ml/min/100 g"}, {"measurement": "CI", "setting": "90 min after administration", "value": "1.83 ± 0.36", "unit": "L/min/m^2"}, {"measurement": "CI change vs before administration", "setting": "90 min after administration", "value": "(−0.25 ± 0.39) L/min/m^2"}, {"measurement": "CO", "setting": "90 min after administration", "value": "1.06 ± 0.20", "unit": "L/min"}]}
